Columns and labels:
Plasmodium falciparum [1] = test: Antimalarial activity against multi-drug-resistant Plasmodium falciparum W2 infected in human type A+ erythrocytes assessed as growth inhibition after 72 hrs by SYBR Green I assay; assay type: functional, organism-based; conditions: W2, 72 h
Plasmodium falciparum [2] = test: Antimalarial activity against multi-drug-resistant Plasmodium falciparum TM90-C2B infected in human type A+ erythrocytes assessed as growth inhibition after 72 hrs by SYBR Green I assay; assay type: functional, organism-based
[3] = Resistance index, ratio of EC50 for multi-drug-resistant Plasmodium falciparum TM90-C2B infected in human type A+ erythrocytes to EC50 for multi-drug-resistant Plasmodium falciparum W2 infected in human type A+ erythrocytes; assay type: functional
J774 = test: Cytotoxicity against mouse J774 cells after 72 hrs by CellTiter 96 assay; assay type: cell-based; conditions: J774, 72 h
[4] = Cytotoxicity index, ratio of EC50 for mouse J774 cells to EC50 for multi-drug-resistant Plasmodium falciparum TM90-C2B infected in human type A+ erythrocytes; assay type: toxicity, cell-based; conditions: read-out: Ratio EC50
[5] = octanol/water, pH 7.4
Plasmodium berghei [6] = test: Antimalarial activity against Plasmodium berghei ANKA expressing GFP infected in Balb/c mouse assessed as inhibition of parasitemia at 50 mg/kg, po qd administered as single dose on day 3 to 5 of exposure measured on day 6 post exposure by in vivo thomson test relative to control; assay type: functional
Plasmodium berghei [7] = test: Antimalarial activity against Plasmodium berghei ANKA expressing GFP infected in Balb/c mouse assessed as inhibition of parasitemia at 10 mg/kg, po qd administered as single dose on day 3 to 5 of exposure measured on day 6 post exposure by in vivo thomson test relative to control; assay type: functional
Plasmodium berghei [8] = test: Antimalarial activity against Plasmodium berghei ANKA expressing GFP infected in Balb/c mouse assessed as mouse survival at 50 mg/kg, po qd administered as single dose on day 3 to 5 of exposure measured on day 6 post exposure by in vivo thomson test relative to control; assay type: functional
Plasmodium berghei [9] = test: Antimalarial activity against Plasmodium berghei ANKA expressing GFP infected in Balb/c mouse assessed as mouse survival at 10 mg/kg, po qd administered as single dose on day 3 to 5 of exposure measured on day 6 post exposure by in vivo thomson test relative to control; assay type: functional
Plasmodium berghei [10] = test: animal or person; conditions: ANKA, in Mus musculus, read-out: INH

Compound | EC50 (Plasmodium falciparum [1]) | EC50 (Plasmodium falciparum [2]) | Ratio EC50 [3] | EC50 (J774) | selectivity ratio [4] | logD [5] | inhibition in vivo at 50 mg/kg (Plasmodium berghei [6]) | inhibition in vivo at 10 mg/kg (Plasmodium berghei [7]) | mouse survival time at 50 mg/kg (Plasmodium berghei [8]) | survival time at 10 mg/kg (Plasmodium berghei [9]) | inhibition in vivo at 50 mg/kg (Plasmodium berghei [10])
COc1cc2[nH]c(C)c(-c3ccc(O)cc3)c(=O)c2cc1Cl | 2860 nM | 467 nM | 0.16 | > 31700 nM | > 67.8 |  |  |  |  |  | 
COc1cc2[nH]c(C)c(-c3ccccn3)c(=O)c2cc1Cl | 928 nM | 214 nM | 0.23 | > 33300 nM | > 156 |  |  |  |  |  | 
COc1cc2[nH]c(C)c(-c3ccc(C=O)cc3)c(=O)c2cc1Cl | 5520 nM | > 3810 nM | 0.7 | > 30500 nM |  |  |  |  |  |  | 
COc1cc2[nH]c(C)c(-c3ccc4c(c3)OCCO4)c(=O)c2cc1Cl | 173 nM | 91.9 nM | 0.53 | > 27900 nM | > 304 |  |  |  |  |  | 
COc1cc2[nH]c(C)c(-c3ccc(C(=O)O)cc3)c(=O)c2cc1Cl | 517 nM | 73.1 nM | 0.14 | > 29100 nM | > 398 |  |  |  |  |  | 
COc1cc2[nH]c(C)c(-c3ccccc3OC(F)(F)F)c(=O)c2cc1Cl | 443 nM | 1910 nM | 4.32 | > 30200 nM | > 15.8 |  |  |  |  |  | 
COc1cc2[nH]c(C)c(-c3ccc4nonc4c3)c(=O)c2cc1Cl | 1970 nM | 80.6 nM | 0.04 | > 29300 nM | > 363 |  |  |  |  |  | 
COc1cc2[nH]c(C)c(-c3cncnc3)c(=O)c2cc1Cl | 2990 nM | 1360 nM | 0.45 | > 33100 nM | > 24.4 |  |  |  |  |  | 
COc1cc2[nH]c(C)c(-c3cc4ccccc4o3)c(=O)c2cc1Cl | 133 nM | 138 nM | 1.04 | > 29400 nM | > 214 |  |  |  |  |  | 
COc1cc2[nH]c(C)c(-c3ccc(COc4ccccc4)cc3)c(=O)c2cc1Cl | 1.3 nM | 0.638 nM | 0.49 |  |  |  |  |  |  |  | 
COc1cc2[nH]c(C)c(-c3c(C)noc3C)c(=O)c2cc1Cl | 1060 nM | 629 nM | 0.59 | > 31400 nM | > 49.9 |  |  |  |  |  | 
Cn1c(=O)c2[nH]cnc2n(C)c1=O.O [THEOPHYLLINE] |  |  |  |  |  | -5 |  |  |  |  | 
CCOc1cc(-c2c(C)[nH]c3cc(OC)c(Cl)cc3c2=O)ccc1F | 194 nM | 25.8 nM | 0.13 | > 27600 nM | > 1070 |  |  |  |  |  | 
COC(=O)c1ccc(-c2c(C)[nH]c3cc(OC)c(Cl)cc3c2=O)cc1 | 22.5 nM | 26 nM | 1.16 | > 27900 nM | > 1080 |  |  |  |  |  | 
COc1cc2[nH]c(C)c(-c3ccccc3C)c(=O)c2cc1Cl | 5.83 nM | 4.03 nM | 0.69 | > 31900 nM | > 7910 |  | 41% | 17% | 0 days | 0 days | 9%
COc1cc2[nH]c(C)c(-c3cccc(CO)c3)c(=O)c2cc1Cl | 5400 nM | 829 nM | 0.15 | > 30300 nM | > 36.6 |  |  |  |  |  | 
COc1cc2[nH]c(C)c(-c3ccc(N(C)C)nc3)c(=O)c2cc1Cl | 748 nM | 91.1 nM | 0.12 | > 29100 nM | > 319 |  | 22% | < 1% | 0 days | 0 days | 
COc1cc2[nH]c(C)c(-c3cc(C(F)(F)F)cc(C(F)(F)F)c3)c(=O)c2cc1Cl | 1680 nM | 449 nM | 0.27 | > 22900 nM | > 51.1 |  |  |  |  |  | 
COc1cc2[nH]c(C)c(-c3ccc(S(=O)(=O)N(C)C)cc3)c(=O)c2cc1Cl | 1890 nM | 152 nM | 0.08 | > 24600 nM | > 162 |  |  |  |  |  | 
COc1cc2[nH]c(C)c(-c3ccc(N(C)C)cc3)c(=O)c2cc1Cl | 60.7 nM | 15.3 nM | 0.25 |  | > 1900 |  |  |  |  |  | 
COc1cc2[nH]c(C)c(-c3ccc(OCc4ccc(F)cc4)cc3)c(=O)c2cc1Cl | 5.18 nM | 1.56 nM |  | > 23600 nM |  |  |  |  |  |  | 

From ChEMBL document CHEMBL3351419, “Orally bioavailable 6-chloro-7-methoxy-4(1H)-quinolones efficacious against multiple stages of Plasmodium” (J Med Chem, 2014)
